{"source": "patent US20060242728A1", "about": "“Chemically-inducible promotors for the expression of proteins in plants” (priority 2003, published 2006)", "key": {"NIMIN-2 mRNA": {"system": "NIMIN-2 mRNA", "conditions": "cited from earlier work"}, "NIMIN-2 promoter": {"system": "NIMIN-2 promoter", "test": "GUS reporter gene activity in leaf discs of transgenic lines floated on inducer", "type": "cell-based, Arabidopsis thaliana", "conditions": "leaf discs floated on 1 mM SA or 140 mg/l Bion, 3 days, protein extracts; FIG. 3", "experimental": "(§1) For characterizing the influence of chemicals on the activity of the NIMIN promoters, leaf discs were punched from the transgenic lines NIMIN1-GUS and NIMIN2-GUS. As a control, PR-1a promoter fusions were used. The leaf discs were floated on 1 mM SA, 140 mg/l Bion (a functional analogue to salicylic acid) or water. After 3 days, protein extracts were prepared and the activity of the GUS reporter gene in the extracts was assayed. The resulting reporter gene activities were 5 times higher In the NIMIN-2 promoter fusions than In PR-1a promoter fusions (cf. FIG. 3). Further, leaf discs from the transgenic lines NIMIN1-GUS and NIMIN2-GUS were incubated with different salicylic acid concentrations."}, "NIMIN-1 mRNA": {"system": "NIMIN-1 mRNA", "conditions": "cited from earlier work"}, "NIMIN promoters": {"system": "NIMIN promoters", "test": "GUS reporter gene activity in leaf discs incubated with different salicylic acid concentrations", "type": "cell-based, Arabidopsis thaliana", "conditions": "leaf discs of NIMIN1-GUS and NIMIN2-GUS lines; FIGS. 4 and 5", "experimental": "as §1"}}, "data": [{"compound": "CSC(=O)c1cccc2nnsc12", "note": "[Bion]", "values": [{"measurement": "inducibility of NIMIN-2 mRNA", "setting": "NIMIN-2 mRNA", "result": "inducible"}, {"measurement": "reporter gene (GUS) activity in NIMIN-2 promoter fusions relative to PR-1a promoter fusions", "setting": "NIMIN-2 promoter", "result": 5, "unit": "times"}, {"measurement": "inducibility of NIMIN-1 mRNA", "setting": "NIMIN-1 mRNA", "result": "inducible"}]}, {"compound": "O=C(O)c1ccccc1O", "note": "[salicylic acid]", "values": [{"measurement": "activity of the NIMIN promoters versus inducer concentration", "setting": "NIMIN promoters", "result": "depends on the salicyclic acid concentration"}, {"measurement": "inducibility of NIMIN-2 mRNA", "setting": "NIMIN-2 mRNA", "result": "inducible"}, {"measurement": "reporter gene (GUS) activity in NIMIN-2 promoter fusions relative to PR-1a promoter fusions", "setting": "NIMIN-2 promoter", "result": 5, "unit": "times"}, {"measurement": "inducibility of NIMIN-1 mRNA", "setting": "NIMIN-1 mRNA", "result": "inducible"}]}]}
